Laboratory results reported in patent US10793568B2, “Hormone receptor modulators for treating metabolic conditions and disorders” (ARDELYX, INC., priority 2016, dated 2020).
Read-outs that look alike come from different tables or passages of the source.

What was measured:
[1] = target: ligand binding domain of human FXR (Homo sapiens (Human), UniProt Q96RI1); test: FXR ligand binding assay (LanthaScreen TR-FRET, SRC2-2 peptide recruitment); details: for pEC50: -log EC50, concentration required to produce 50% activation; for Emax: read-out: % Efficacy
Chain of ligand binding domain of human FXR (Q96RI1 262-486): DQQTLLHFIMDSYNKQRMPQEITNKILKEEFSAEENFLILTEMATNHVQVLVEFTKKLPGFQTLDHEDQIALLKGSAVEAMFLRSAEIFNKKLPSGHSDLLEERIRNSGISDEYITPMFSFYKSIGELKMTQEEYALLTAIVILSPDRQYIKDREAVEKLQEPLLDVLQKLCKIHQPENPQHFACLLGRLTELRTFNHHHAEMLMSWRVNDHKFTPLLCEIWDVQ

[2] = target: human Farnesoid X receptor ligand-binding domain/Gal4 DNA binding domain chimera (Homo sapiens (Human), UniProt Q96RI1); test: Cell-based assay of FXR activation (FXR-UAS-bla HEK 293T beta-lactamase reporter); details: cellular FXR beta-lactamase reporter assay; for Emax: HEK-293T, extent of activation relative to GW4064, read-out: % Efficacy; for EC50: FXR-UAS-bla HEK 293T cells, 16 h, pEC50 = -log EC50
Chain of human Farnesoid X receptor ligand-binding domain/Gal4 DNA binding domain chimera (Q96RI1 262-486, change not shown): as the sequence (Q96RI1 262-486) above
Chain of human Farnesoid X receptor ligand-binding domain/Gal4 DNA binding domain chimera (P04386 1-147 partner): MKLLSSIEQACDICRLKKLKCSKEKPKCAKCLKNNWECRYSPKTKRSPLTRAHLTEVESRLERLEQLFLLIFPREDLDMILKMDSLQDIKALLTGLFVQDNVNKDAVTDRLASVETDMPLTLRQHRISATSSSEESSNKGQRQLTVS
In short: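 Readout is cleavage of the CCF4 FRET substrate (409 nm excitation, blue 447 nm signal) by beta-lactamase, expressed under UAS control after a Gal4–human FXR LBD chimera is activated in HEK 293T cells. Compounds were added as 3-fold dilutions for 16 h at 37 °C in 2% charcoal-stripped FBS medium. Curves were fit to a 3-parameter logistic equation to give pEC50, with % activation relative to GW4064.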

[3] = extent of activation relative to GW4064

SMILES: O=C(NS(=O)(=O)C1CC1)c1cc(F)c2nc(N3C[C@@H]4C[C@H]3C[C@H]4OC(=O)c3c(-c4c(Cl)cccc4Cl)noc3C3CC3)sc2c1 [Compound I-33, (1S,4S,5R)-2-{6-[(cyclopropanesulfonyl)carbamoyl]-4-fluoro-1,3-benzothiazol-2-yl}-2-azabicyclo[2.2.1]heptan-5-yl 5-cyclopropyl-3-(2,6-dichlorophenyl)-1,2-oxazole-4-carboxylate]
- pEC50 [1]: 7.6
- Emax [1, 3]: 136%
- Emax [2]: 112%
- EC50 [2]: 126 nM

SMILES: O=C(O)c1cc(F)c2nc(N3C[C@@H]4C[C@H]3C[C@H]4OC(=O)c3c(-c4c(Cl)cccc4Cl)noc3C3(F)CC3)sc2c1 [Compound I-10, 2-[(1S,4S,5R)-5-[3-(2,6-dichlorophenyl)-5-(1-fluorocyclopropyl)-1,2-oxazole-4-carbonyloxy]-2-azabicyclo[2.2.1]heptan-2-yl]-4-fluoro-1,3-benzothiazole-6-carboxylic Acid]
- pEC50 [1]: 7
- Emax [1, 3]: 145%
- Emax [2]: 111%
- EC50 [2]: 25.1 nM

SMILES: Cc1cc(C(=O)O)cc2sc(N3C[C@@H]4C[C@H]3C[C@H]4OC(=O)c3c(-c4c(Cl)cccc4Cl)noc3C3CC3)nc12 [Compound I-3, 2-[(1S,4S,5R)-5-[5-cyclopropyl-3-(2,6-dichlorophenyl)-1,2-oxazole-4-carbonyloxy]-2-azabicyclo[2.2.1]heptan-2-yl]-4-methyl-1,3-benzothiazole-6-carboxylic acid]
- pEC50 [1]: 7.6
- Emax [1, 3]: 153%
- Emax [2]: 123%
- EC50 [2]: 5.01 nM

SMILES: O=C(O)c1cc(C(F)(F)F)c2nc(N3C[C@@H]4C[C@H]3C[C@H]4OCc3c(-c4c(Cl)cccc4Cl)noc3C3CC3)sc2c1 [Compound I-15, 2-[(1S,4S,5R)-5-{[5-cyclopropyl-3-(2,6-dichlorophenyl)-1,2-oxazol-4-yl]methoxy}-2-azabicyclo[2.2.1]heptan-2-yl]-4-(trifluoromethyl)-1,3-benzothiazole-6-carboxylic acid]
- pEC50 [1]: 7.8
- Emax [1, 3]: 150%
- Emax [2]: 104%
- EC50 [2]: 0.251 nM

SMILES: Cc1cccc(Cl)c1-c1noc(C2CC2)c1CO[C@@H]1C[C@@H]2C[C@H]1CN2c1ccc(C(=O)O)cc1 [Compound I-114, 4-[(1S,4S,5R)-5-{[3-(2-chloro-6-methylphenyl)-5-cyclopropyl-1,2-oxazol-4-yl]methoxy}-2-azabicyclo[2.2.1]heptan-2-yl]-benzoic Acid]
- Emax [1, 3]: 124%
- Emax [2]: 103%
- EC50 [2]: 2.51 nM

SMILES: O=C(O)c1cc(OC2CC2)c2nc(N3C(=O)[C@@H]4C[C@H]3C[C@H]4OCc3c(-c4c(Cl)cccc4Cl)noc3C3CC3)sc2c1 [Compound I-297, 4-cyclopropoxy-2-((1S,4R,5R)-5-((5-cyclopropyl-3-(2,6-dichlorophenyl)isoxazol-4-yl)methoxy)-3-oxo-2-azabicyclo[2.2.1]heptan-2-yl)benzo[d]thiazole-6-carboxylic acid]
- pEC50 [1]: 9
- Emax [1, 3]: 77%
- Emax [2]: 110%
- EC50 [2]: 0.316 nM

SMILES: O=C(O)[C@@H]1CCc2cc(N3C[C@@H]4C[C@H]3C[C@H]4OCc3c(-c4c(Cl)cccc4Cl)noc3C3CC3)ccc2C1 (single isomer, unassigned) [Compound I-137]
- pEC50 [1]: 8
- Emax [1, 3]: 132%
- Emax [2]: 106%
- EC50 [2]: 10 nM

SMILES: Cc1cccc(C)c1-c1noc(C2CC2)c1CO[C@@H]1C[C@@H]2C[C@H]1CN2c1ccc(C(=O)O)cc1F [Compound I-116, 4-[(1S,4S,5R)-5-{[5-cyclopropyl-3-(2,6-dimethylphenyl)-1,2-oxazol-4-yl]methoxy}-2-azabicyclo[2.2.1]heptan-2-yl]-3-fluorobenzoic Acid]
- pEC50 [1]: 8.6
- Emax [1, 3]: 131%
- Emax [2]: 102%
- EC50 [2]: 3.98 nM

SMILES: O=C(O)c1cc(C2CC2)c2nc(N3C(=O)[C@@H]4C[C@H]3C[C@H]4OCc3c(-c4c(Cl)cccc4Cl)noc3C3CC3)sc2c1 [Compound I-295, 4-cyclopropyl-2-((1S,4R,5R)-5-((5-cyclopropyl-3-(2,6-dichlorophenyl)isoxazol-4-yl)methoxy)-3-oxo-2-azabicyclo[2.2.1]heptan-2-yl)benzo[d]thiazole-6-carboxylic acid]
- pEC50 [1]: 8.2
- Emax [1, 3]: 98%
- Emax [2]: 105%
- EC50 [2]: 1 nM

SMILES: CCCS(=O)(=O)NC(=O)c1ccc(N2C[C@@H]3C[C@H]2C[C@H]3OCc2c(-c3c(Cl)cccc3Cl)noc2C2(F)CC2)c(F)c1 [Compound I-198, 4-((1S,4S,5R)-5-((3-(2,6-dichlorophenyl)-5-(1-fluorocyclopropyl)isoxazol-4-yl)methoxy)-2-azabicyclo[2.2.1]heptan-2-yl)-3-fluoro-N-(propylsulfonyl)benzamide]
- pEC50 [1]: 8.5
- Emax [1, 3]: 178%
- Emax [2]: 112%
- EC50 [2]: 0.501 nM

SMILES: O=C(NS(=O)(=O)C1CC1)c1ccc(N2C[C@@H]3C[C@H]2C[C@H]3OC(=O)c2c(-c3c(Cl)cccc3Cl)noc2C2(F)CC2)c(F)c1 [Compound I-199, (1S,4S,5R)-2-(4-((cyclopropylsulfonyl)carbamoyl)-2-fluorophenyl)-2-azabicyclo[2.2.1]heptan-5-yl 3-(2,6-dichlorophenyl)-5-(1-fluorocyclopropyl)isoxazole-4-carboxylate]
- pEC50 [1]: 7.4
- Emax [1, 3]: 146%
- Emax [2]: 110%
- EC50 [2]: 10 nM

SMILES: Cc1cc(C(=O)O)cc2sc(N3C[C@@H]4C[C@H]3C[C@H]4OCc3c(-c4c(F)cccc4Cl)noc3C3CC3)nc12 [Compound I-262, 2-[(1S,4S,5R)-5-{[3-(2-chloro-6-fluorophenyl)-5-cyclopropyl-1,2-oxazol-4-yl]methoxy}-2-azabicyclo[2.2.1]heptan-2-yl]-4-methyl-1,3-benzothiazole-6-carboxylic Acid]
- pEC50 [1]: 8.6
- Emax [1, 3]: 144%
- Emax [2]: 114%
- EC50 [2]: 2 nM

SMILES: Cc1cccc(Cl)c1-c1noc(C2(F)CC2)c1CO[C@@H]1C[C@@H]2C[C@H]1CN2c1ccc(C(=O)O)c(F)c1 [Compound I-124, 4-[(1S,4S,5R)-5-{[3-(2-chloro-6-methylphenyl)-5-(1-fluorocyclopropyl)-1,2-oxazol-4-yl]methoxy}-2-azabicyclo[2.2.1]heptan-2-yl]-2-fluorobenzoic Acid]
- pEC50 [1]: 9.7
- Emax [1]: 143%
- Emax [2]: 105%
- EC50 [2]: 3.98 nM

SMILES: CC(C)C(=O)OCCS(=O)(=O)NC(=O)c1ccc(N2C[C@@H]3C[C@H]2C[C@H]3OCc2c(-c3c(Cl)cccc3Cl)noc2C2CC2)cc1 [Compound I-213, 2-[({4-[(1S,4S,5R)-5-{[5-cyclopropyl-3-(2,6-dichlorophenyl)-1,2-oxazol-4-yl]methoxy}-2-azabicyclo[2.2.1]heptan-2-yl]phenyl}formamido)sulfonyl]ethyl 2-methylpropanoate]
- pEC50 [1]: 9.4
- Emax [1, 3]: 131%
- EC50 [2]: < 31.6 nM

SMILES: CC(C)(C)c1cc(C(=O)O)cc2sc(N3C[C@@H]4C[C@H]3C[C@H]4OCc3c(-c4c(Cl)cccc4Cl)noc3C3CC3)nc12 [Compound I-248, 4-tert-butyl-2-[(1S,4S,5R)-5-{[5-cyclopropyl-3-(2,6-dichlorophenyl)-1,2-oxazol-4-yl]methoxy}-2-azabicyclo[2.2.1]heptan-2-yl]-1,3-benzothiazole-6-carboxylic Acid]
- pEC50 [1]: 7.8
- Emax [1, 3]: 116%
- Emax [2]: 112%
- EC50 [2]: 0.631 nM

SMILES: O=C(NS(=O)(=O)C1CC1)c1cc(F)c2nc(N3C[C@@H]4C[C@H]3C[C@H]4OCc3c(-c4c(Cl)cccc4Cl)noc3C3CC3)sc2c1 [Compound I-30, N-(cyclopropanesulfonyl)-2-[(1S,4S,5R)-5-{[5-cyclopropyl-3-(2,6-dichlorophenyl)-1,2-oxazol-4-yl]methoxy}-2-azabicyclo[2.2.1]heptan-2-yl]-4-fluoro-1,3-benzothiazole-6-carboxamide]
- pEC50 [1]: 8.6
- Emax [1, 3]: 160%
- Emax [2]: 114%
- EC50 [2]: 2.51 nM

SMILES: Cc1cc(C(=O)NCCP(=O)(O)O)ccc1N1C[C@@H]2C[C@H]1C[C@H]2OCc1c(-c2c(Cl)cccc2Cl)noc1C1CC1 [Compound I-173, [2-({4-[(1S,4S,5R)-5-{[5-cyclopropyl-3-(2,6-dichlorophenyl)-1,2-oxazol-4-yl]methoxy}-2-azabicyclo[2.2.1]heptan-2-yl]-3-methylphenyl}formamido)ethyl]phosphonic Acid]
- pEC50 [1]: 9.2
- Emax [1]: 144%
- Emax [2]: 114%
- EC50 [2]: 100 nM

SMILES: O=C(O)c1cc(F)c2nc(N3C[C@H]4C[C@@H]3C[C@@H]4OCc3c(-c4c(Cl)cccc4Cl)noc3C3CC3)sc2c1 [Compound I-39, 2-[(1R,4R,5S)-5-{[5-cyclopropyl-3-(2,6-dichlorophenyl)-1,2-oxazol-4-yl]methoxy}-2-azabicyclo[2.2.1]heptan-2-yl]-4-fluoro-1,3-benzothiazole-6-carboxylic Acid]
- pEC50 [1]: 7.8
- Emax [1, 3]: 96%
- Emax [2]: 105%
- EC50 [2]: 50.1 nM

SMILES: O=C(O)c1ccc(N2C[C@@H]3C[C@H]2C[C@H]3OCc2c(-c3c(Cl)cccc3Cl)noc2C2CC2)c(F)c1 [Compound I-53, 4-[(1S,4S,5R)-5-[[5-cyclopropyl-3-(2,6-dichlorophenyl)-1,2-oxazol-4-yl]methoxy]-2-azabicyclo[2.2.1]heptan-2-yl]-3-fluorobenzoic acid]
- pEC50 [1]: 8.7
- Emax [1, 3]: 145%
- Emax [2]: 113%
- EC50 [2]: 0.398 nM

SMILES: CC(C)(Cc1ccc(N2C[C@@H]3C[C@H]2C[C@H]3OCc2c(-c3c(Cl)cccc3Cl)noc2C2CC2)cc1F)C(=O)O [Compound I-156, 3-{4-[(1S,4S,5R)-5-{[5-cyclopropyl-3-(2,6-dichlorophenyl)-1,2-oxazol-4-yl]methoxy}-2-azabicyclo[2.2.1]heptan-2-yl]-2-fluorophenyl}-2,2-dimethylpropanoic Acid]
- pEC50 [1]: 7.6
- Emax [1, 3]: 128%
- Emax [2]: 105%
- EC50 [2]: 39.8 nM
